Assay results published in patent US9993536B2, “Peptides and combination of peptides and scaffolds for use in immunotherapy against renal cell carcinoma (RCC) and other cancers” (immatics biotechnologies GmbH, priority 2015, dated 2018).

How the values were obtained:
CD8+ T cells = experiment: In vitro T-cell priming assay with aAPCs loaded with peptide/MHC complexes and anti-CD28 (immunogenicity, multimer staining); format: cell-based, human; settings: in vitro immunogenicity, HLA class I peptides; percentage of positive wells
Excerpt: In order to obtain information regarding the immunogenicity of the TUMAPs of the present invention, the inventors performed investigations using an in vitro T-cell priming assay based on repeated stimulations of CD8+ T cells with artificial antigen presenting cells (aAPCs) loaded with peptide/MHC complexes and anti-CD28 antibody.
In order to perform in vitro stimulations by artificial antigen presenting cells loaded with peptide-MHC complex (pMHC) and anti-CD28 antibody, the inventors first isolated CD8+ T cells from fresh HLA-A*02 leukapheresis products via positive selection using CD8 microbeads (Miltenyi Biotec, Bergisch-Gladbach, Germany) of healthy donors obtained from the University clinics Mannheim, Germany, after informed consent.
PBMCs and isolated CD8+ lymphocytes were incubated in T-cell medium (TCM) until use consisting of RPMI-Glutamax (Invitrogen, Karlsruhe, Germany) supplemented with 10% heat inactivated human AB serum (PAN-Biotech, Aidenbach, Germany), 100 U/ml Penicillin/100 μg/ml Streptomycin (Cambrex, Cologne, Germany), 1 mM sodium pyruvate (CC Pro, Oberdorla, Germany), 20 μg/ml Gentamycin (Cambrex). 2.5 ng/ml IL-7 (PromoCell, Heidelberg, Germany) and 10 U/ml IL-2 (Novartis Pharma, Nürnberg, Germany) were also added to the TCM at this step.
Generation of pMHC/anti-CD28 coated beads, T-cell stimulations and readout was performed in a highly defined in vitro system using four different pMHC molecules per stimulation condition and 8 different pMHC molecules per readout condition.
The purified co-stimulatory mouse IgG2a anti human CD28 Ab 9.3 (Jung et al., 1987) was chemically biotinylated using Sulfo-N-hydroxysuccinimidobiotin as recommended by the manufacturer (Perbio, Bonn, Germany). Beads used were 5.6 μm diameter streptavidin coated polystyrene particles (Bangs Laboratories, Illinois, USA).
pMHC used for positive and negative control stimulations were A*0201/MLA-001 (peptide […] (SEQ ID NO. 152) from modified Melan-A/MART-1) and A*0201/DDX5-001 ([…] from DDX5 (SEQ ID NO. 153)), respectively.
800.000 beads/200 μl were coated in 96-well plates in the presence of 4×12.5 ng different biotin-pMHC, washed and 600 ng biotin anti-CD28 were added subsequently in a volume of 200 μl. Stimulations were initiated in 96-well plates by co-incubating […] CD8+ T cells with 2×10^5 washed coated beads in 200 μl TCM supplemented with 5 ng/ml IL-12 (PromoCell) for 3 days at 37° C. Half of the medium was then exchanged by fresh TCM supplemented with 80 U/ml IL-2 and incubating was continued for 4 days at 37° C. This stimulation cycle was performed for a total of three times. For the pMHC multimer readout using 8 different pMHC molecules per condition, a two-dimensional combinatorial coding approach was used as previously described (Andersen et al., 2012) with minor modifications encompassing coupling to 5 different fluorochromes. Finally, multimeric analyses were performed by staining the cells with Live/dead near IR dye (Invitrogen, Karlsruhe, Germany), CD8-FITC antibody clone SK1 (BD, Heidelberg, Germany) and fluorescent pMHC multimers. For analysis, a BD LSRII SORP cytometer equipped with appropriate lasers and filters was used. Peptide specific cells were calculated as percentage of total CD8+ cells. Evaluation of multimeric analysis was done using the FlowJo software (Tree Star, Oregon, USA). In vitro priming of specific multimer+ CD8+ lymphocytes was detected by comparing to negative control stimulations.

HLA-A*02:01 = HLA-A*02:01 (Homo sapiens, UniProt P04439, D140Y/D185E/D98H/E176V/E277Q/G131W/G231S/I119V/I121R/I166T/I218V/L300P/L318F/N151K/N90K/P208A/P217A/Q86G/Q94H/R138H/R169H/T345S); experiment: MHC binding assay (UV-ligand exchange, beta2m ELISA); settings: peptide exchange yield, HLA-A*02:01, UV-ligand exchange
Excerpt: Candidate peptides for T cell based therapies according to the present invention were further tested for their MHC binding capacity (affinity). The individual peptide-MHC complexes were produced by UV-ligand exchange, where a UV-sensitive peptide is cleaved upon UV-irradiation, and exchanged with the peptide of interest as analyzed. Only peptide candidates that can effectively bind and stabilize the peptide-receptive MHC molecules prevent dissociation of the MHC complexes. To determine the yield of the exchange reaction, an ELISA was performed based on the detection of the light chain (β2m) of stabilized MHC complexes. The assay was performed as generally described in Rodenko et al. (Rodenko et al., 2006).
96 well MAXISorp plates (NUNC) were coated over night with 2 ug/ml streptavidin in PBS at room temperature, washed 4× and blocked for 1 h at 37° C. in 2% BSA containing blocking buffer. Refolded HLA-A*02:01/MLA-001 monomers served as standards, covering the range of 15-500 ng/ml. Peptide-MHC monomers of the UV-exchange reaction were diluted 100 fold in blocking buffer. Samples were incubated for 1 h at 37° C., washed four times, incubated with 2 ug/ml HRP conjugated anti-β2m for 1 h at 37° C., washed again and detected with TMB solution that is stopped with […]. Absorption was measured at 450 nm. Candidate peptides that show a high exchange yield (preferably higher than 50%, most preferred higher than 75%) are generally preferred for a generation and production of antibodies or fragments thereof, and/or T cell receptors or fragments thereof, as they show sufficient avidity to the MHC molecules and prevent dissociation of the MHC complexes.

| Substance | Wells positive [%] (CD8+ T cells) | Peptide exchange (MHC class I binding score) (HLA-A*02:01) |
| --- | --- | --- |
| 95 (KLTDVGIATL; listed as Homo sapiens) [compound 95] | ++++ (>=70% = ++++) | ++ (≥20% = ++) |
| 98 (KIPPVSPSI; listed as Homo sapiens) [compound 98] | ++++ (>=70% = ++++) | ++ (≥20% = ++) |
